Data taken from publication PMC6264310, “Synthesis and Pharmacological Activity of Diterpenylnaphthoquinone Derivatives” (Molecules, 2011).

What was measured:
MRC-5 fibroblasts = test: Basal cytotoxicity, neutral red uptake assay, MRC-5; assay type: cell-based; conditions: Homo sapiens, MRC5, MRC-5, confluent cultures, 24 h, read-out: IC50 ± SEM, Fibroblasts
Procedure: (§1) 3.6. Cytotoxicity Assay
(§2) The human cell lines MRC-5 normal lung fibroblasts (ATCC CCL-171), AGS gastric adenocarcinoma cells (ATCC CRL-1739), and Hep G2 hepatocellular carcinoma cells (ATCC HB-8065) were obtained from the American Type Culture Collection (ATCC, Manassas, VA, USA). The cells were grown as monolayers in the following media: MRC-5 and Hep G2 in minimum essential Eagle’s medium (MEM), with Earle’s salts, 2.0 mM L-glutamine (Sigma Chemical Co.) and 2.2 g/L sodium bicarbonate (Sigma Chemical Co.), supplemented with 10% heat-inactivated fetal bovine serum (FBS), 100 IU/mL penicillin, and 100 µg/mL streptomycin in a humidified incubator with 5% CO2 in air at 37 °C. Cell passage was maintained between 10 and 16 for MRC-5 and between 79 and 82 for Hep G2 cells. The medium was changed every 2 days. Culture media, antibiotics, and FBS were obtained from Invitrogen Corp. Human gastric adenocarcinoma cells AGS (ATCC CRL-1739) were grown as monolayers in Ham F-12 medium containing 1.0 mM L-glutamine and 1.5 g/L sodium bicarbonate, supplemented with 10% heat-inactivated FBS, 100 IU/mL penicillin, and 100 µg/mL streptomycin in a humidified incubator with 5% CO2 in air at 37 °C. Cell passage was maintained between 42 and 48. The medium was changed every 2 days.
(§3) Confluent cultures of the different cell lines were treated with medium containing the compounds at concentrations ranging from 1 up to 1,000 µM. The antisecretory drug lansoprazole was used as reference compound. The substances were first dissolved in DMSO and then in the corresponding culture medium supplemented with 2% FBS. The final concentration of DMSO in the test medium and controls was 1%. The cells were exposed for 24 h to test medium with or without the compound (control). Each concentration was tested in quadruplicate together with the control and repeated three times in separate experiments. At the end of the incubation the neutral red uptake assay was performed.

[1] = tested on: HCl-EtOH-induced gastric lesions; test: HCl-EtOH-induced gastric lesion model in mice; assay type: in vivo
Procedure: 3.5. HCl-EtOH-Induced Ulcer Model in Mice
The gastroprotective activity of the compounds was assessed in the EtOH-HCl-induced gastric lesion model. Male Swiss albino mice weighing 30 ± 3 g were used. The animals were fed on certified Champion diet with free access to water under standard conditions of 12 h dark-light period, 50% relative humidity, and 22 °C room temperature. The mice were randomly distributed into groups of 7–14 animals each and fasted for 24 h with free access to water before the oral administration of test samples by gavage. The purity of the tested compounds was higher than 95% by NMR analysis. To keep the animal numbers to a minimum, dose-response studies were performed with lapachol at 5, 10 and 50 mg/kg to set the conditions for single-dose comparison of gastroprotective effect. The tested compounds, lansoprazole (20 mg/kg) or the vehicle (12% Tween 80, 10 mL/kg) were administered orally by gavage. After 50 min, all groups were orally treated with 0.2 mL of a solution containing 60% EtOH-0.3 M HCl for gastric lesion induction. Animals were sacrificed by cervical dislocation 1 h after the administration of EtOH-HCl, and the stomachs excised and inflated by injection of 5% formalin (1 mL). The ulcerated stomachs were fixed in 5% formalin for 30 min and opened along the greater curvature. The length (mm) of each lesion was measured, and the lesion index expressed as the sum of the length of all lesions. Based on previous studies on the parent diterpenes, comparison of the new compounds 1–12 was carried out at a single oral dose of 5 mg/kg. The protocols were approved by the Universidad de Talca Institutional Animal Care and Use Committee, which follows the recommendations of the Canadian Council on Animal Care. Tween 80 and lansoprazole (>98% purity by HPLC) were purchased from Sigma-Aldrich.
Results were expressed as the mean ± SEM. In all experiments, statistical differences between several treatments and their respective control were determined by one-way ANOVA with Student-Newman-Keuls post-hoc test. The level of significance was set at P < 0.05.

AGS cells = test: Basal cytotoxicity, neutral red uptake assay, AGS; assay type: cell-based; conditions: Homo sapiens, confluent cultures, 24 h, read-out: IC50 ± SEM, AGS
Procedure: as §1, §2, §3

Hep G2 cells = test: Basal cytotoxicity, neutral red uptake assay, Hep G2; assay type: cell-based; conditions: Homo sapiens, HepG2, Hep G2, confluent cultures, 24 h, read-out: IC50 ± SEM, Hep G2
Procedure: as §1, §2, §3

[2] = Mus musculus, 1 h, mice, single oral dose of 5 mg/kg, read-out: Protected stomachs (number of stomachs completely protected from any visible bleeding) (converted)
[3] = Mus musculus, 1 h, mice, single oral dose of 5 mg/kg, read-out: Protection (%)
[4] = mice, single oral dose of 5 mg/kg

Row | Compound | IC50 (MRC-5 fibroblasts) [µM] | responders at 5 mg/kg [1, 2] [%] | inhibition in vivo at 5 mg/kg [1, 3] [%] | Lesion index (mm) Mean ± SEM [1, 4] [mm] | IC50 (AGS cells) [µM] | IC50 (Hep G2 cells) [µM] | responders at 20 mg/kg ([1]; Mus musculus, 1 h, mice, oral, 20 mg/kg, read-out: Protected stomachs (number of stomachs completely protected from any visible bleeding) (converted)) [%] | inhibition in vivo at 20 mg/kg ([1]; Mus musculus, 1 h, mice, oral, 20 mg/kg, read-out: Protection (%)) [%] | Lesion index (mm) Mean ± SEM ([1]; mice, oral, 20 mg/kg) [mm] | Gastroprotective effect compared with the vehicle control (Tween 80) ([1]; mice, 5, 10 and 50 mg/kg, data not shown)
1 | CC1=C(CC[C@@H](C)CC(=O)OC2=C(CCC(C)C)C(=O)c3ccccc3C2=O)[C@@]2(C)CCC[C@](C)(C(=O)O)C2CC1 (stereo partly shown) [Compound 9, Dihydroprenyl lapachoyl Δ8(9) junicedrate] | 341 ± 17 | 0 | 64 | 15.7 ± 4.5 | 294 ± 15 | > 1000 |  |  |  | 
2 | COC(=O)[C@@]1(C)CCC[C@]2(C)C(CC[C@@H](C)CC(=O)OC3=C(CCC(C)C)C(=O)c4ccccc4C3=O)=C(C)CCC12 (stereo partly shown) [Compound 10, Dihydroprenyl lapachoyl Δ8(9) junicedrate methyl ester] | > 1000 | 33.3 | 76 | 10.2 ± 3.5 | 162 ± 10 | > 1000 |  |  |  | 
3 | CC(C)=CCC1=C(OC(=O)C[C@H](C)CCC2[C@@H](C)CCC3[C@]2(C)CCC[C@]3(C)C(=O)O)C(=O)c2ccccc2C1=O (stereo partly drawn) [Compound 11, Lapachoyl 17β-dihydrojunicedrate] | 336 ± 15 | 0 | 6 | 23.5 ± 3.6 | 114 ± 7 | 54.5 ± 5 |  |  |  | 
4 | COC(=O)[C@@]1(C)CCC[C@]2(C)C(CC[C@@H](C)CC(=O)OC3=C(CC=C(C)C)C(=O)c4ccccc4C3=O)[C@@H](C)CCC21 (stereo partly drawn) [Compound 12, Lapachoyl 17β-dihydrojunicedrate methyl ester] | 926 ± 35 | 0 |  | 27.4 ± 6.8 | 323 ± 16 | 290 ± 9 |  |  |  | 
5 | COc1cc([C@@H]2c3cc4c(cc3[C@@H](O[C@@H]3O[C@@H]5CO[C@@H](C)O[C@H]5[C@H](O)[C@H]3O)[C@H]3COC(=O)[C@H]23)OCO4)cc(OC)c1O [Etoposide, reference compound] |  |  |  |  | 0.58 ± 0.02 |  |  |  |  | 
6 | C=C1CCC2[C@](C)(CCC[C@]2(C)C(=O)O)[C@H]1CC[C@@H](C)CC(=O)O (stereo partly shown) [Junicedric acid (I), junicedric acid, reference compound] | 181 ± 9 |  |  |  | 304 ± 18 | > 1000 |  |  |  | 
7 | Cc1c(OCC(F)(F)F)ccnc1C[S+]([O-])c1nc2ccccc2[nH]1 (stereo not shown) [Lansoprazole, lansoprazole, reference compound] | 306 ± 11 |  |  |  | 162 ± 6 | 221 ± 9 | 66.7 | 73 | 9.4 ± 1.2 | 
8 | CC(C)=CCC1=C(O)C(=O)c2ccccc2C1=O [Lapachol (IV), 2-hydroxy-3-(3-methyl-2-butenyl)-[1,4]-naphthoquinone, reference compound] | > 1000 |  |  |  | 382 ± 15 | 55 ± 3 |  |  |  | did not present a statistically significant effect
9 | CC1=C(CC[C@@H](C)CC(=O)O)[C@@]2(C)CCC[C@](C)(C(=O)O)C2CC1 (stereo partly shown) [Δ8(9) junicedric acid (II), Δ8(9) Junicedric acid, reference compound] | 214 ± 32 | 44.4 | 79 | 5.3 ± 2.4 | 343 ± 22 | > 1000 |  |  |  | 
